Test results from patent US9908896B2, “P38 and JNK MAPK inhibitors for the treatment and prophylaxis of degenerative diseases of the nervous system” (ALLINKY BIOPHARMA, priority 2014, dated 2018).

Assays:
[1] = biological target: T1, recombinant activated p38alpha (Homo sapiens, UniProt Q16539); test: in vitro kinase assay p38 (ADP-Glo); type: biochemical; conditions: 100 μM ATP
T1 construct: purchased ProQinase
Method: (§1) Purified recombinant activated p38alpha (10 nM)(ProQinase) was preincubated 10 minutes at 30° C. with the compound of interest at concentrations between 1 and 100 μM in duplicate in a final volume of 30 μl of kinase buffer (Hepes 60 mM pH 7.5, MgCl2 3 mM, MnCl2 3 mM, sodium orthovanadate 3 μM, DTT 1.2 mM). After preincubation, peptide substrate (SignalChem #P03-58) and ATP were added to a final concentration of 10 μM and 100 μM respectively, and then incubated 40 minutes at 30° C. for the kinase reaction. Phosphorylation was analysed with ADP-Glo™ (Promega #V9101) and emitted luminescence was measured with BMG Fluostar microplate reader.

[2] = system: recombinant activated JNK; test: in vitro kinase assay JNK (ADP-Glo); type: biochemical; conditions: 100 μM ATP
Method: as §1, with “JNK” for “p38alpha”, “nM) (ProQinase)” for “nM)(ProQinase)”, “analyzed” for “analysed”

[3] = system: TNF-α secretion by a human monocytic cell line, THP-1; test: Inhibition of TNF-α secretion by LPS-stimulated THP-1 cells (ELISA); type: cell-based; conditions: LPS-stimulated THP-1, TNF-α
Method: Thp1-Inhibition of TNF-α Secretion by a Human Monocytic Cell Line, THP-1
THP-1 cells, growing in log phase, were collected by centrifugation and resuspended in RPMI 1640 (Sigma Aldrich), to a final cell concentration of 2×10^6 cells/ml. Cells were plated into 24-well plates (BD Biosciences). Dilutions of compounds in dimethyl sulfoxide (DMSO) were added to the culture to a final concentration M. The final DMSO concentration was 0.5%. The cells […] suspensions were preincubated with compounds for 1 h at 37° C. in a 5% CO2 humidified atmosphere before the addition of LPS (Sigma Aldrich, L2654) to a g/ml. After that, cells were incubated for 3 h followed final concentration of […] by centrifugation to pellet cells. Cell supernatants were stored at 4° C. until human analysis for TNF-α content. TNF-α levels were determined by ELISA (TNF Biotrak, GE Healthcare) following the manufacturer's directions. The percentage inhibition was calculated for each compound concentration tested, and the IC50 was calculated for each compound.

[4] = system: Aβ25-35-induced learning deficits; test: Novel object recognition after i.c.v. Aβ25-35 injection; type: in vivo, male Sprague Dawley rats; conditions: 10 mg/kg i.v. once a day
Method: The purpose of the study was to determine whether the test compound 1 can alleviate the pathology produced in rats by the acute intracerebroventricular (i.c.v) injection of an oligomeric Aβ25-35 peptide preparation. The compound efficacy was evaluated 7 days after the peptide administration, on: • the attenuation of the Aβ25-35-induced learning deficits (recognition long-term memory: novel object recognition); • the attenuation of the Aβ25-35-induced Aβ^1-42 accumulation in the rat hippocampus. One administration procedure was examined: the compound 1 (10 mg/kg) administered intraveinously (i.v.) once a day during 9 days. […] On day 8 and 9, the recognition long-term memory of the animals was assessed using the novel object recognition (NOR) procedure. […] Each rat was placed in the open-field and the exploratory activity recorded during a 10-min duration session. The activity was analyzed using the Nosetrack® protocol (Viewpoint), in terms of number of contact with objects and duration of contacts. […] Each rat was placed again in the open-field and the exploratory activity recorded during a 10-min duration session. The activity was analyzed similarly. The preferential exploration index was calculated as the ratio of the number (or duration) of contacts with the object in position #1 over the total number for duration) of contacts with the two objects. […]

T1 sequence (Q16539 whole entry): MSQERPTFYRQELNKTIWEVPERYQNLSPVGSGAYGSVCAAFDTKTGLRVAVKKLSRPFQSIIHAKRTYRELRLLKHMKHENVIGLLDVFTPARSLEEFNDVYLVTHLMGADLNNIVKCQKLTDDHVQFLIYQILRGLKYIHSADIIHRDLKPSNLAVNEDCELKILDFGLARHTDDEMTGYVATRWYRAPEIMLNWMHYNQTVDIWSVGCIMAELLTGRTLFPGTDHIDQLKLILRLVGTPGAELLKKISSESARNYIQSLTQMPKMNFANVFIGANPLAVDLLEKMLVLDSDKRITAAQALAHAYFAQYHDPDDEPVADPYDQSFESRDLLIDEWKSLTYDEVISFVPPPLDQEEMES

## CCCOc1ccc(Nc2nc3nonc3nc2N2CCC(Oc3ccc(Cl)cc3)CC2)cc1 [Comp 1]
[1]; 1 μM compound
  inhibition at 1 µM: 37%
[1]; 10 μM compound
  inhibition at 10 µM: 99%
[2]; 1 μM compound
  % of inhibition at 1 μM, JNK: 49%
[2]; 10 μM compound
  % of inhibition at 10 μM, JNK: 98%
[3]; 1 μM compound, read-out: % of inhibition at 1 μM, THP1
  inhibition at 1 µM: 51%
[3]; 10 μM compound, read-out: % of inhibition at 10 μM, THP1
  inhibition at 10 µM: 74%
[4]; day 8, two identical objects, vs no preference level
  Object preference in session 2 (contacts and duration of contacts): higher than 50%
[4]; day 9, vs 50% level
  Novel object preference in session 3 (number and duration of contacts): alleviated the impairments
